Laboratory results published in PubChem BioAssay AID1845201 (Molecular Pharmacology Branch, DTP, NCI, 2023).

Tested on: COR L88 complex tumor spheroid viability
Assay: Anticancer human tumor COR L88 cell line growth inhibition;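 also: compound exposure lasted 7 days before viability readout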;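 as to viability, T/C: percent of DMSO vehicle-treated spheroids = 100%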
Conditions: for viability, T/C: stronger effect = lower value
Summary of the method: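 Complex spheroids of malignant cells with endothelial cells and mesenchymal stem cells; agents alone or combined, from near clinical Cmax (or 10 microM if unknown) down in half-log steps, 0.25% DMSO final.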

[1] = curve of first compound, second compound 0.003 µM
[2] = second compound 0.003 µM, first compound 0.00949 µM
[3] = second compound 0.003 µM, first compound 0.03 µM
[4] = second compound 0.003 µM, first compound 0.0949 µM
[5] = second compound 0.003 µM, first compound 0.3 µM
[6] = second compound 0.003 µM, first compound 0.949 µM
[7] = second compound 0.003 µM, first compound 3 µM

SMILES: COc1cc2c(cc1O)CCNC21CSC2c3c(OC(C)=O)c(C)c4c(c3C(COC1=O)N1C(O)C3Cc5cc(C)c(OC)c(O)c5C(C21)N3C)OCO4 (stereo unspecified)
- viability, T/C (compound 30 pM): 103% [middle of 10 runs]
- viability, T/C (compound 94.9 pM): 110% [middle of 10 runs]
- viability, T/C (compound 0.0003 µM): 71.5% [middle of 10 runs]
- viability, T/C (compound 0.000949 µM): 59.8% [middle of 10 runs]
- viability, T/C (compound 0.003 µM): 0.67% [middle of 10 runs]
- IC50 (compound alone, run of 10/25/2019): 1.02 nM [middle of 10 runs]

SMILES: CNCc1ccc(-c2cc(-c3nc(-c4ccc(S(=O)(=O)C(C)C)cc4)cnc3N)on2)cc1 + CC[C@@]1(O)C(=O)OCc2c1cc1n(c2=O)Cc2cc3c(CN(C)C)c(O)ccc3nc2-1
- IC50 [1]: 497 nM
- IC50 (curve of first compound, second compound 0.00949 µM): 393 nM
- IC50 (curve of first compound, second compound 0.03 µM): 149 nM
- IC50 (curve of first compound, second compound 0.0949 µM): 22.6 nM
- IC50 (curve of first compound, second compound 0.3 µM): < 9.49 nM
- viability, T/C [2]: 94.4%
- viability, T/C [3]: 102%
- viability, T/C [4]: 105%
- viability, T/C [5]: 64.2%
- viability, T/C [6]: 30.1%
- viability, T/C [7]: 9.59%
- viability, T/C (second compound 0.00949 µM, first compound 0.00949 µM): 103%
- viability, T/C (second compound 0.00949 µM, first compound 0.03 µM): 99.7%
- viability, T/C (second compound 0.00949 µM, first compound 0.0949 µM): 88.2%
- viability, T/C (second compound 0.00949 µM, first compound 0.3 µM): 53.7%
- viability, T/C (second compound 0.00949 µM, first compound 0.949 µM): 30%
- viability, T/C (second compound 0.00949 µM, first compound 3 µM): 9.92%
- viability, T/C (second compound 0.03 µM, first compound 0.00949 µM): 60.8%
- viability, T/C (second compound 0.03 µM, first compound 0.03 µM): 63.6%
- viability, T/C (second compound 0.03 µM, first compound 0.0949 µM): 62.6%
- viability, T/C (second compound 0.03 µM, first compound 0.3 µM): 32.5%
- viability, T/C (second compound 0.03 µM, first compound 0.949 µM): 17.3%
- viability, T/C (second compound 0.03 µM, first compound 3 µM): 9.44%
- viability, T/C (second compound 0.0949 µM, first compound 0.00949 µM): 55.3%
- viability, T/C (second compound 0.0949 µM, first compound 0.03 µM): 49.5%
- viability, T/C (second compound 0.0949 µM, first compound 0.0949 µM): 24.9%
- viability, T/C (second compound 0.0949 µM, first compound 0.3 µM): 16.2%
- viability, T/C (second compound 0.0949 µM, first compound 0.949 µM): 11.7%
- viability, T/C (second compound 0.0949 µM, first compound 3 µM): 7.2%
- viability, T/C (second compound 0.3 µM, first compound 0.00949 µM): 43%
- viability, T/C (second compound 0.3 µM, first compound 0.03 µM): 29.2%
- viability, T/C (second compound 0.3 µM, first compound 0.0949 µM): 14.9%
- viability, T/C (second compound 0.3 µM, first compound 0.3 µM): 9.3%
- viability, T/C (second compound 0.3 µM, first compound 0.949 µM): 7.79%
- viability, T/C (second compound 0.3 µM, first compound 3 µM): 5.02%

SMILES: CNCc1ccc(-c2cc(-c3nc(-c4ccc(S(=O)(=O)C(C)C)cc4)cnc3N)on2)cc1 + COc1cc2c(cc1O)CCNC21CSC2c3c(OC(C)=O)c(C)c4c(c3C(COC1=O)N1C(O)C3Cc5cc(C)c(OC)c(O)c5C(C21)N3C)OCO4
- IC50 (curve of first compound, second compound 30 pM): 394 nM
- IC50 (curve of first compound, second compound 94.9 pM): 331 nM
- IC50 (curve of first compound, second compound 0.0003 µM): 248 nM
- IC50 (curve of first compound, second compound 0.000949 µM): 30.7 nM
- IC50 [1]: < 9.49 nM
- viability, T/C (second compound 30 pM, first compound 0.00949 µM): 108%
- viability, T/C (second compound 30 pM, first compound 0.03 µM): 110%
- viability, T/C (second compound 30 pM, first compound 0.0949 µM): 101%
- viability, T/C (second compound 30 pM, first compound 0.3 µM): 57.5%
- viability, T/C (second compound 30 pM, first compound 0.949 µM): 22.4%
- viability, T/C (second compound 30 pM, first compound 3 µM): 7.83%
- viability, T/C (second compound 94.9 pM, first compound 0.00949 µM): 102%
- viability, T/C (second compound 94.9 pM, first compound 0.03 µM): 106%
- viability, T/C (second compound 94.9 pM, first compound 0.0949 µM): 101%
- viability, T/C (second compound 94.9 pM, first compound 0.3 µM): 50.2%
- viability, T/C (second compound 94.9 pM, first compound 0.949 µM): 22.5%
- viability, T/C (second compound 94.9 pM, first compound 3 µM): 5.19%
- viability, T/C (second compound 0.0003 µM, first compound 0.00949 µM): 82%
- viability, T/C (second compound 0.0003 µM, first compound 0.03 µM): 91.2%
- viability, T/C (second compound 0.0003 µM, first compound 0.0949 µM): 75.9%
- viability, T/C (second compound 0.0003 µM, first compound 0.3 µM): 43.7%
- viability, T/C (second compound 0.0003 µM, first compound 0.949 µM): 19.8%
- viability, T/C (second compound 0.0003 µM, first compound 3 µM): 8.93%
- viability, T/C (second compound 0.000949 µM, first compound 0.00949 µM): 62.4%
- viability, T/C (second compound 0.000949 µM, first compound 0.03 µM): 49.4%
- viability, T/C (second compound 0.000949 µM, first compound 0.0949 µM): 31.6%
- viability, T/C (second compound 0.000949 µM, first compound 0.3 µM): 10.9%
- viability, T/C (second compound 0.000949 µM, first compound 0.949 µM): 7.96%
- viability, T/C (second compound 0.000949 µM, first compound 3 µM): 3.08%
- viability, T/C [2]: 0.92%
- viability, T/C [3]: 0.86%
- viability, T/C [4]: 0.58%
- viability, T/C [5]: 0.62%
- viability, T/C [6]: 0.86%
- viability, T/C [7]: 0.52%

SMILES: CC(C)n1c(=O)n(C)c2cnc3cc(F)c(-c4ccc(OCCCN5CCCCC5)nc4)cc3c21 + Cn1nnc2c(C(N)=O)ncn2c1=O
- IC50 (curve of first compound, second compound 1 µM): > 10000 nM
- IC50 (curve of first compound, second compound 3.16 µM): > 10000 nM
- IC50 (curve of first compound, second compound 10 µM): > 10000 nM
- IC50 (curve of first compound, second compound 31.6 µM): 6870 nM
- IC50 (curve of first compound, second compound 100 µM): 5060 nM
- viability, T/C (second compound 1 µM, first compound 0.0316 µM): 104%
- viability, T/C (second compound 1 µM, first compound 0.1 µM): 97.7%
- viability, T/C (second compound 1 µM, first compound 0.316 µM): 98.9%
- viability, T/C (second compound 1 µM, first compound 1 µM): 94.5%
- viability, T/C (second compound 1 µM, first compound 3.16 µM): 80.7%
- viability, T/C (second compound 1 µM, first compound 10 µM): 52.8%
- viability, T/C (second compound 3.16 µM, first compound 0.0316 µM): 96.2%
- viability, T/C (second compound 3.16 µM, first compound 0.1 µM): 105%
- viability, T/C (second compound 3.16 µM, first compound 0.316 µM): 98.2%
- viability, T/C (second compound 3.16 µM, first compound 1 µM): 95.4%
- viability, T/C (second compound 3.16 µM, first compound 3.16 µM): 80%
- viability, T/C (second compound 3.16 µM, first compound 10 µM): 54.6%
- viability, T/C (second compound 10 µM, first compound 0.0316 µM): 96.2%
- viability, T/C (second compound 10 µM, first compound 0.1 µM): 91.6%
- viability, T/C (second compound 10 µM, first compound 0.316 µM): 94.5%
- viability, T/C (second compound 10 µM, first compound 1 µM): 91.2%
- viability, T/C (second compound 10 µM, first compound 3.16 µM): 76.1%
- viability, T/C (second compound 10 µM, first compound 10 µM): 50.8%
- viability, T/C (second compound 31.6 µM, first compound 0.0316 µM): 87.1%
- viability, T/C (second compound 31.6 µM, first compound 0.1 µM): 84.8%
- viability, T/C (second compound 31.6 µM, first compound 0.316 µM): 87.5%
- viability, T/C (second compound 31.6 µM, first compound 1 µM): 80.9%
- viability, T/C (second compound 31.6 µM, first compound 3.16 µM): 67.4%
- viability, T/C (second compound 31.6 µM, first compound 10 µM): 41.2%
- viability, T/C (second compound 100 µM, first compound 0.0316 µM): 72.5%
- viability, T/C (second compound 100 µM, first compound 0.1 µM): 69%
- viability, T/C (second compound 100 µM, first compound 0.316 µM): 74%
- viability, T/C (second compound 100 µM, first compound 1 µM): 76%
- viability, T/C (second compound 100 µM, first compound 3.16 µM): 56.9%
- viability, T/C (second compound 100 µM, first compound 10 µM): 40.1%
